The source of these data is patent publication EP1232756A1, “DRUGS, DRINKS OR FOODS” (Takara Shuzo Co, Ltd., priority 1999, dated 2001).

Assay [1] has as its system human breast cancer-derived MCF-7 cells. The assay is described as follows: E-SCREEN assay, proliferation of cultured cells, MTT method (Example 8). It counts as cell-based. How it is done:
A test for proliferation of cultured cells was carried out according to a method called the E-SCREEN assay as described in Ana M. Soto et al. (Environ. Health Perspect. 103:113-122(1995)). Briefly, 4.0 x 10^3 of human breast cancer-derived MCF-7 cells in a volume of 100 µL were seeded into each well of a 96-well plate. The plate was incubated overnight. BisA or a combination of BisA and n-octyl gallate was then added thereto. A well without the addition was used as a control. The cells were further cultured for 4 days in a medium, Dulbecco's modified Eagle medium without Phenol Red supplemented with 5% FCS treated with activated carbon-dextran. The MTT method was used to measured the cell numbers.
Background: Formazan colour is commonly taken as a measure of viable cells.

Assay [2] concerns female SD rat. The experiment in a line: Anti-estrogenic activity of n-octyl gallate against NP, rat uterine weight (Example 10). It counts as in vivo. To be noted: for Uterine weight: 1.5 hours before NP, 3 days; for Ratio: vs control (100%). How it is done:
(§1) A 16-days old female SD rat (Japan SLC) was purchased together with its mother, weaned at 19 days of age, and subjected to experiments from the next day. n-Octyl gallate (Tokyo Kasei Kogyo) was dissolved in a small volume of ethanol. Peanut oil was added thereto to result in a final ethanol concentration of 5%. The resulting mixture was orally administered to the 20-days old female SD rat for three successive days. The uterine removed on the day after the last administration day was weighed. Peanut oil containing 5% ethanol was used for a vehicle administration group. NP weighed such that it would be administered at 50 mg/kg was diluted by adding peanut oil. It was orally administered 1.5 hours after the administration of n-octyl gallate.

For assay [3], the system named is female SD rat. The experiment in a line: Anti-estrogenic activity of n-octyl gallate or n-cetyl gallate against subcutaneously administered BisA, rat uterine weight (Example 11). It counts as in vivo. To be noted: for Uterine weight: 3 days; for Ratio: vs control (100%). How it is done:
A 17-days old female SD rat (Japan SLC) was purchased together with its mother, weaned at 20 days of age, and subjected to experiments from the next day. n-Octyl gallate or n-cetyl gallate (both from Tokyo Kasei Kogyo) was dissolved in a small volume of ethanol. Peanut oil was added thereto to result in a final ethanol concentration of 5%. The resulting mixture was orally administered to the 21-days old female SD rat for three successive days. The uterine removed on the day after the last administration day was weighed. Peanut oil containing 5% ethanol was used for a vehicle administration group. BisA was dissolved in a small volume of ethanol. Peanut oil was added thereto to result in a final ethanol concentration of 5%. The mixture was subcutaneously administered.

The test system of assay [4] is female SD rat. The assay is described as follows: Anti-estrogenic activity of n-octyl gallate against BisA, rat uterine weight (Example 9). It is filed as in vivo. Conditions: for Uterine weight: 1.5 hours before BisA, 3 days; for Ratio: vs control (100%). How it is done:
as §1, with “BisA” for “NP weighed such that it would be administered at 50 mg/kg”, “dissolved in a small volume of ethanol. Peanut oil was added thereto to result in a final ethanol concentration of 5%.” for “diluted by adding peanut oil.”

Assay [5] addresses T1, ER(α) (estrogen receptor α) (Homo sapiens, UniProt P03372).
T1 construct: purchased PanVera V2577
T1 sequence (P03372 1-595): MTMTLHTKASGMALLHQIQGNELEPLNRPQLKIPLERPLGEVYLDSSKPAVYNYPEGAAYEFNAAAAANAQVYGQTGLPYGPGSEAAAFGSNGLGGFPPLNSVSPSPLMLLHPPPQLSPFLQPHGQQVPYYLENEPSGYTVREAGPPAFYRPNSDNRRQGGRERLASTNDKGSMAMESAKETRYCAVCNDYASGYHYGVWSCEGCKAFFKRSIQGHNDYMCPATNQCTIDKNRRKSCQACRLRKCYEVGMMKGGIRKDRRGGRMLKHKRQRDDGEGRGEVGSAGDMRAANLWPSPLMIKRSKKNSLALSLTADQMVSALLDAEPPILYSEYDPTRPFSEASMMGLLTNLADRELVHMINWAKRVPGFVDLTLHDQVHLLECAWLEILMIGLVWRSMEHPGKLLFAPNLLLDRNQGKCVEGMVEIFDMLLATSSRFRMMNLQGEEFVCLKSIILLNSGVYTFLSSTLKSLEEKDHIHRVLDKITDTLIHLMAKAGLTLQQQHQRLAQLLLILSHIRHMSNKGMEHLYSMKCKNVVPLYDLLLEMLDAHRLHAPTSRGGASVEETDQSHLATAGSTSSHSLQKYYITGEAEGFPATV
The assay is described as follows: Binding to estrogen receptor, fluorescence polarization competition (FP Screen-for-Competitors kit, ER-α) (Example 7). Conditions: concentration inhibiting 50% of the binding of the ES1-ER(α) complex by competing with ES1; 1 hour at room temperature. How it is done: Bindings of various gallic acid derivatives to estrogen receptor were tested using FP Screen-for-Competitors kit, ER-α, high sensitivity kit (V2577: PanVera). The tests were carried out basically according to the procedure as described in the manual attached to the kit. One of various gallic acid derivatives (n-octyl gallate (gallic acid n-octyl ester), n-dodecyl gallate (gallic acid n-dodecyl ester) and n-cetyl gallate (gallic acid n-hexadecyl ester)) was dissolved in DMSO and serially diluted to prepare diluted samples (0.5 M - 0.0000000005 M). 49 µL of Screening buffer attached to the kit was added to 1 µL of one of the diluted samples and stirred thoroughly. 50 µL of 10 nM-15 nM:ES1-ER(α) complex (a complex of ES1 (a fluorescent ligand that binds to ER) and ER(α) (estrogen receptor α)) attached to the kit was added thereto, resulting in the total volume of 100 µL. After allowing to stand for 1 hour at room temperature, fluorescence polarization was measured at an excitation wavelength of 360 nm and an emission wavelength of 535 nm using Full-Range BEACON 2000 (PanVera).
In general terms: In fluorescence polarisation assays a small probe gives low polarisation when free and higher when bound to something large.

The mark [6] stands for this setting: NP 50 mg/kg oral + n-octyl gallate 25 mg/kg oral.
The mark [7] stands for this setting: NP 50 mg/kg oral + n-octyl gallate 126 mg/kg oral.
Where [8] appears, read: BisA 40 mg/kg subcutaneous + n-octyl gallate 5 mg/kg oral.
Setting [9] is: BisA 40 mg/kg subcutaneous + n-octyl gallate 25 mg/kg oral.
Setting [10] is: BisA 40 mg/kg oral + n-octyl gallate 25 mg/kg oral.
Where [11] appears, read: BisA 40 mg/kg oral + n-octyl gallate 126 mg/kg oral.

Consider `CCCCCCCCOC(=O)c1cc(O)c(O)c(O)c1` [n-octyl gallate, gallic acid n-octyl ester], for which the “Relative rate of increase in cell number” value in assay [1] (BisA + n-octyl gallate, MCF-7, 4 days culture, control = 100) is recorded as 91%. The “suppression of the proliferation of the cells (in words)” value in assay [1] (BisA and n-octyl gallate added, MCF-7) was “suppressed to a degree almost the same as that of the control”. Besides, the Uterine weight in the assay on female SD rat [2] (setting [6]) is listed as 40.4 ± 3.6 mg; with female SD rat [2] (setting [7]) it was 38.6 ± 2.4 mg; in the assay with female SD rat [3] (setting [8]), 48.3 ± 1.5 mg; in the assay with female SD rat [3] (setting [9]) it was 42.1 ± 1.9 mg; in the assay on female SD rat [4] (setting [10]), 32.7 ± 3.5 mg; with female SD rat [4] (setting [11]) it was 32.9 ± 3.6 mg. Further, the Ratio is recorded as 122% in the assay with female SD rat [2] (setting [6]); 117% in the assay with female SD rat [2] (setting [7]); 117% with female SD rat [3] (setting [8]); 102% in the assay on female SD rat [3] (setting [9]); 108% in the assay on female SD rat [4] (setting [10]); 108% in the assay with female SD rat [4] (setting [11]). The same compound had a concentration for half-maximal inhibition (IC50) in assay [5] of 3.38 µM.

The IC50 is the concentration that gives 50% inhibition. A low value points to greater potency.
